The source of these data is patent publication US12043632B2, “6-heteroaryloxy benzimidazoles and azabenzimidazoles as JAK2 inhibitors” (Ajax Therapeutics, Inc., priority 2020, dated 2024).

Structures are written as SMILES.

A word on the Kd: it is the free concentration of one partner at which half of the binding sites on the other are occupied at equilibrium, for simple one-to-one binding.

The target in the experiment is T1, JAK2 (JH1domain-catalytic, Y1007F,Y1008F) kinase (Homo sapiens, UniProt O60674, Y1007F/Y1008F).
T1 construct: JAK2 (JH1domain-catalytic, Y1007F,Y1008F) kinase was expressed as N-terminal fusion; made in house; host or cells: transiently transfected HEK293 cells
T1 sequence (O60674 849-1124 Y1007F/Y1008F limits assumed): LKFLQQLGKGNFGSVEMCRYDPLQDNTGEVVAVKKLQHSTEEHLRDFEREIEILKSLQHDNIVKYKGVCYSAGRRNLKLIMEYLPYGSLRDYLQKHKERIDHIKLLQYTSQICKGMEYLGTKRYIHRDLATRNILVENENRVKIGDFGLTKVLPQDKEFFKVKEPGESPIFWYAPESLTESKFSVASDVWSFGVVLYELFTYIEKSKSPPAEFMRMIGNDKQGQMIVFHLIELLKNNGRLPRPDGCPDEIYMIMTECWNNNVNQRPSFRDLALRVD
As to the kind of experiment: JAK2 JH1 Domain Binding Assay. Conditions: qPCR readout. For orientation: Real-time PCR tracks product formation cycle by cycle.
Molecule `CNc1nccn2ncc(Oc3cnc4nc(Nc5cc(C(F)(F)F)cn([C@H]6C[C@@H](O)C6)c5=O)n(C)c4c3Cl)c12` [Example I-214, 3-((7-chloro-1-methyl-6-((4-(methylamino)pyrazolo[1,5-a]pyrazin-3-yl)oxy)-1H-imidazo[4,5-b]pyridin-2-yl)amino)-1-((1s,3s)-3-hydroxycyclobutyl)-5-(trifluoromethyl)pyridin-2(1H)-one] showed a Kd of under 10 nM. As for `CN(C)Cc1cc(F)c(Nc2nc3ncc(Oc4cnn5ccncc45)c(Cl)c3n2C)cc1C(F)(F)F` [Example I-215, 7-chloro-N-(4-((dimethylamino)methyl)-2-fluoro-5-(trifluoromethyl)phenyl)-1-methyl-6-(pyrazolo[1,5-a]pyrazin-3-yloxy)-1H-imidazo[4,5-b]pyridin-2-amine], the figure is under 10 nM; as for `CNc1nccn2ncc(Oc3cnc4nc(Nc5ccc(CN6CC(C#N)C6)c(C(F)(F)F)c5)n(C)c4c3Cl)c12` [Example I-216, 1-(4-((7-chloro-1-methyl-6-((4-(methylamino)pyrazolo[1,5-a]pyrazin-3-yl)oxy)-1H-imidazo[4,5-b]pyridin-2-yl)amino)-2-(trifluoromethyl)benzyl)azetidine-3-carbonitrile], 10 to 50 nM; as for `[2H]C([2H])([2H])n1cc(C(F)(F)F)cc(Nc2nc3ncc(Oc4cnn5ccnc(NC)c45)c(Cl)c3n2C)c1=O` [Example I-217, 3-((7-chloro-1-methyl-6-((4-(methylamino)pyrazolo[1,5-a]pyrazin-3-yl)oxy)-1H-imidazo[4,5-b]pyridin-2-yl)amino)-1-(methyl-d3)-5-(trifluoromethyl)pyridin-2(1H)-one], under 10 nM. With `CN1CC(Oc2cc(Nc3nc4ncc(Oc5cnn6ccncc56)c(Cl)c4n3C)cc(C(F)(F)F)c2)C1` [Example I-218, 7-chloro-1-methyl-N-(3-((1-methylazetidin-3-yl)oxy)-5-(trifluoromethyl)phenyl)-6-(pyrazolo[1,5-a]pyrazin-3-yloxy)-1H-imidazo[4,5-b]pyridin-2-amine] the figure was under 10 nM; with `CNc1nccn2ncc(Oc3cnc4nc(Nc5cc(-n6cnc(C)c6)cc(C(F)(F)F)c5)n(C)c4c3Cl)c12` [Example I-219, 7-chloro-1-methyl-N-(3-(4-methyl-1H-imidazol-1-yl)-5-(trifluoromethyl)phenyl)-6-((4-(methylamino)pyrazolo[1,5-a]pyrazin-3-yl)oxy)-1H-imidazo[4,5-b]pyridin-2-amine], 10 to 50 nM. As for `CNc1nccn2ncc(Oc3cnc4nc(Nc5cc(N6CCN(C)CC6)cc(C(F)(F)F)c5)n(C)c4c3Cl)c12` [Example I-220, 7-chloro-1-methyl-6-((4-(methylamino)pyrazolo[1,5-a]pyrazin-3-yl)oxy)-N-(3-(4-methylpiperazin-1-yl)-5-(trifluoromethyl)phenyl)-1H-imidazo[4,5-b]pyridin-2-amine], the figure is 10 to 50 nM; as for `CNc1nccn2ncc(Oc3cnc4nc(Nc5cc(C(F)(F)F)cn(C)c5=O)n(C)c4c3)c12` [Example I-221, 1-methyl-3-((1-methyl-6-((4-(methylamino)pyrazolo[1,5-a]pyrazin-3-yl)oxy)-1H-imidazo[4,5-b]pyridin-2-yl)amino)-5-(trifluoromethyl)pyridin-2(1H)-one], 10 to 50 nM; as for `CNc1nccn2ncc(Oc3cnc4nc(Oc5cc(C6CC6)cn(C(C)C)c5=O)n(C)c4c3Cl)c12` [Example I-222], 10 to 50 nM. `CNc1nccn2ncc(Oc3cnc4nc(Nc5cc(C(F)(F)F)c[nH]c5=O)n(C)c4c3Cl)c12` [Example I-223, 3-((7-chloro-1-methyl-6-((4-(methylamino)pyrazolo[1,5-a]pyrazin-3-yl)oxy)-1H-imidazo[4,5-b]pyridin-2-yl)amino)-5-(trifluoromethyl)pyridin-2(1H)-one] returned a Kd of under 10 nM. Regarding `COc1nccn2ncc(Oc3cnc4nc(Nc5cc(C(F)(F)F)cn(C)c5=O)n(C)c4c3Cl)c12` [Example I-224, 3-((7-chloro-6-((4-methoxypyrazolo[1,5-a]pyrazin-3-yl)oxy)-1-methyl-1H-imidazo[4,5-b]pyridin-2-yl)amino)-1-methyl-5-(trifluoromethyl)pyridin-2(1H)-one], the Kd is under 10 nM. Regarding `Cn1cc(C(F)(F)F)cc(Nc2nc3ncc(Oc4cnn5ccnc(N[C@H]6CCOC6)c45)c(Cl)c3n2C)c1=O` [Example I-225, (S)-3-((7-chloro-1-methyl-6-((4-((tetrahydrofuran-3-yl)amino)pyrazolo[1,5-a]pyrazin-3-yl)oxy)-1H-imidazo[4,5-b]pyridin-2-yl)amino)-1-methyl-5-(trifluoromethyl)pyridin-2(1H)-one], the Kd was under 10 nM. `CNc1nccn2ncc(Oc3cnc4nc(Nc5cc(C(=O)N(C)C)c(F)c(C(F)(F)F)c5)n(C)c4c3Cl)c12` [Example I-226, 5-((7-chloro-1-methyl-6-((4-(methylamino)pyrazolo[1,5-a]pyrazin-3-yl)oxy)-1H-imidazo[4,5-b]pyridin-2-yl)amino)-2-fluoro-N,N-dimethyl-3-(trifluoromethyl)benzamide]: the Kd is 10 to 50 nM.

With `CNc1nccn2ncc(Oc3cnc4nc(Nc5cc(OC6CCN(C)CC6)cc(C(F)(F)F)c5)n(C)c4c3Cl)c12` [Example I-227, 7-chloro-1-methyl-6-((4-(methylamino)pyrazolo[1,5-a]pyrazin-3-yl)oxy)-N-(3-((1-methylpiperidin-4-yl)oxy)-5-(trifluoromethyl)phenyl)-1H-imidazo[4,5-b]pyridin-2-amine], the Kd is 10 to 50 nM. With `CNc1nccn2ncc(Oc3cnc4nc(Nc5cc(O[C@H]6CCN(C)C6)cc(C(F)(F)F)c5)n(C)c4c3Cl)c12` [Example I-228, (S)-7-chloro-1-methyl-6-((4-(methylamino)pyrazolo[1,5-a]pyrazin-3-yl)oxy)-N-(3-((1-methylpyrrolidin-3-yl)oxy)-5-(trifluoromethyl)phenyl)-1H-imidazo[4,5-b]pyridin-2-amine] the figure was 10 to 50 nM; with `CNc1nccn2ncc(Oc3cnc4nc(Nc5cc(O[C@@H]6CCN(C)C6)cc(C(F)(F)F)c5)n(C)c4c3Cl)c12` [Example I-229, (R)-7-chloro-1-methyl-6-((4-(methylamino)pyrazolo[1,5-a]pyrazin-3-yl)oxy)-N-(3-((1-methylpyrrolidin-3-yl)oxy)-5-(trifluoromethyl)phenyl)-1H-imidazo[4,5-b]pyridin-2-amine], 10 to 50 nM; with `CCn1c(C(C)(C)C)ncc(Nc2nc3ncc(Oc4cnn5ccnc(NC)c45)c(Cl)c3n2C)c1=O` [Example I-230, 2-(tert-butyl)-5-((7-chloro-1-methyl-6-((4-(methylamino)pyrazolo[1,5-a]pyrazin-3-yl)oxy)-1H-imidazo[4,5-b]pyridin-2-yl)amino)-3-ethylpyrimidin-4(3H)-one], 50 to 1000 nM. As for `Cc1nc(Nc2nc3ncc(Oc4cnn5ccncc45)c(Cl)c3n2C)nc(C)c1C1CC1` [Example I-231, 7-chloro-N-(5-cyclopropyl-4,6-dimethylpyrimidin-2-yl)-1-methyl-6-(pyrazolo[1,5-a]pyrazin-3-yloxy)-1H-imidazo[4,5-b]pyridin-2-amine], the figure is under 10 nM; as for `Cn1c(Nc2nn3c(c2F)COC(C)(C)C3)nc2ncc(Oc3cnn4ccncc34)c(Cl)c21` [Example I-232, N-(7-chloro-1-methyl-6-(pyrazolo[1,5-a]pyrazin-3-yloxy)-1H-imidazo[4,5-b]pyridin-2-yl)-3-fluoro-6,6-dimethyl-6,7-dihydro-4H-pyrazolo[5,1-c][1,4]oxazin-2-amine], under 10 nM; as for `CNc1nccn2ncc(Oc3cnc4nc(Nc5cc(C(F)(F)F)c(C#N)n(C)c5=O)n(C)c4c3Cl)c12` [Example I-233, 5-((7-chloro-1-methyl-6-((4-(methylamino)pyrazolo[1,5-a]pyrazin-3-yl)oxy)-1H-imidazo[4,5-b]pyridin-2-yl)amino)-1-methyl-6-oxo-3-(trifluoromethyl)-1,6-dihydropyridine-2-carbonitrile], 50 to 1000 nM.

The molecule `CNc1nccn2ncc(Oc3cnc4nc(Nc5cc6c(c(C(F)(F)F)c5)C(C)(C)N(C)C6=O)n(C)c4c3Cl)c12` [Example I-234, 6-((7-chloro-1-methyl-6-((4-(methylamino)pyrazolo[1,5-a]pyrazin-3-yl)oxy)-1H-imidazo[4,5-b]pyridin-2-yl)amino)-2,3,3-trimethyl-4-(trifluoromethyl)isoindolin-1-one] registered a Kd of 10 to 50 nM. With `CNc1nccn2ncc(Oc3cnc4nc(Nc5cc(C(F)(F)F)c(CN(C)C)cc5F)n(C)c4c3Cl)c12` [Example I-235, 7-chloro-N-(4-((dimethylamino)methyl)-2-fluoro-5-(trifluoromethyl)phenyl)-1-methyl-6-((4-(methylamino)pyrazolo[1,5-a]pyrazin-3-yl)oxy)-1H-imidazo[4,5-b]pyridin-2-amine] the figure was 10 to 50 nM; with `CNc1nccn2ncc(Oc3cnc4nc(Nc5cc(C(F)(F)F)n(C6CC7(COC7)C6)n5)n(C)c4c3Cl)c12` [Example I-236, N-(1-(2-oxaspiro[3.3]heptan-6-yl)-5-(trifluoromethyl)-1H-pyrazol-3-yl)-7-chloro-1-methyl-6-((4-(methylamino)pyrazolo[1,5-a]pyrazin-3-yl)oxy)-1H-imidazo[4,5-b]pyridin-2-amine], under 10 nM. As for `Cn1c(Nc2cc(N3CCC(O)CC3)cc(C(F)(F)F)c2)nc2ncc(Oc3cnn4ccncc34)c(Cl)c21` [Example I-237, 1-(3-((7-chloro-1-methyl-6-(pyrazolo[1,5-a]pyrazin-3-yloxy)-1H-imidazo[4,5-b]pyridin-2-yl)amino)-5-(trifluoromethyl)phenyl)piperidin-4-ol], the figure is 10 to 50 nM; as for `Cn1c(Nc2cc(N3CC[C@@H](O)C3)cc(C(F)(F)F)c2)nc2ncc(Oc3cnn4ccncc34)c(Cl)c21` [Example I-238, (R)-1-(3-((7-chloro-1-methyl-6-(pyrazolo[1,5-a]pyrazin-3-yloxy)-1H-imidazo[4,5-b]pyridin-2-yl)amino)-5-(trifluoromethyl)phenyl)pyrrolidin-3-ol], under 10 nM.
